Legend:
Assay in all cases: relative viability (nuclei count vs DMSO), 5 days (fraction); higher = more cells survive
[1] = compound: C1/C(=C\C2=CC=CS2)/C(=O)/C(=C/C3=CC=CS3)/C1 + N=C(N)NC(=N)NCCc1ccccc1 [Phenformin] (partner 250 µM)
Procedure, shortened: (§1)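 Dosing by pin tool came one day after lung cancer cell lines were seeded in 1536-well plates, using either one drug or a fixed anchor-drug dose plus five library-drug doses (not always all listed) in √10 steps. After 5 days, nuclei were counted on 4× images. Relative viability is treated-well nuclei count divided by vehicle-well nuclei count, and values are medians of duplicate plates.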

[2] = compound: C1/C(=C\C2=CC=CS2)/C(=O)/C(=C/C3=CC=CS3)/C1 + Nc1ncn([C@H]2C[C@H](O)[C@@H](CO)O2)c(=O)n1 [Decitabine] (partner 2 µM)
Procedure, shortened: as §1

TPCA-1 + Alpelisib = compound: C1=CC(=CC=C1C2=CC(=C(S2)NC(=O)N)C(=O)N)F [TPCA-1] + Cc1nc(NC(=O)N2CCC[C@H]2C(N)=O)sc1-c1ccnc(C(C)(C)C(F)(F)F)c1 [Alpelisib] (partner 2 µM)
Procedure, shortened: as §1

Lestaurtinib + Lapatinib = compound: C[C@]12O[C@H](C[C@]1(O)CO)n1c3ccccc3c3c4c(c5c6ccccc6n2c5c31)CNC4=O [Lestaurtinib] + CS(=O)(=O)CCNCc1ccc(-c2ccc3ncnc(Nc4ccc(OCc5cccc(F)c5)c(Cl)c4)c3c2)o1 [Lapatinib] (partner 2 µM)
Procedure, shortened: as §1

Row | Cell Line | relative viability ([1]; first compound 0.2 µM) | relative viability ([1]; first compound 0.6325 µM) | relative viability ([1]; first compound 2 µM) | relative viability ([1]; first compound 6.325 µM) | relative viability ([1]; first compound 20 µM) | relative viability ([2]; first compound 0.6325 µM) | relative viability ([2]; first compound 2 µM) | relative viability ([2]; first compound 6.325 µM) | relative viability ([2]; first compound 20 µM) | relative viability (TPCA-1 + Alpelisib; first compound 0.04 µM) | relative viability (TPCA-1 + Alpelisib; first compound 0.1265 µM) | relative viability (TPCA-1 + Alpelisib; first compound 0.4 µM) | relative viability (TPCA-1 + Alpelisib; first compound 1.265 µM) | relative viability (TPCA-1 + Alpelisib; first compound 4 µM) | relative viability (Lestaurtinib + Lapatinib; first compound 0.005 µM) | relative viability (Lestaurtinib + Lapatinib; first compound 0.01581 µM) | relative viability (Lestaurtinib + Lapatinib; first compound 0.05 µM) | relative viability (Lestaurtinib + Lapatinib; first compound 0.1581 µM) | relative viability (Lestaurtinib + Lapatinib; first compound 0.5 µM) | relative viability ([2]; first compound 0.2 µM)
1 | PC-3 [JPC-3] | 0.494 | 0.495 | 0.452 | 0.423 | 0.458 | 0.792 | 0.849 | 0.694 | 0.815 | 1.01 | 1.02 | 1.04 | 0.957 | 0.958 | 0.425 | 0.498 | 0.456 | 0.414 | 0.335 | 
2 | NCI-H1792 | 0.514 | 0.273 | 0.67 | 0.287 | 0.322 | 0.519 | 0.561 | 0.495 | 0.496 | 0.733 | 0.714 | 0.646 | 0.675 | 0.389 | 0.779 | 1.05 | 0.56 | 0.653 | 0.244 | 0.642
3 | NCI-H596 | 0.711 | 0.799 | 0.846 | 0.78 | 0.857 | 1.13 | 0.992 | 1.05 | 1.02 | 0.545 | 0.485 | 0.442 | 0.428 | 0.345 | 1.22 | 1.03 | 0.973 | 1.26 | 0.843 | 1.04
4 | RERF-LC-KJ | 0.407 | 0.461 | 0.474 | 0.432 | 0.432 | 0.767 | 0.728 | 0.619 | 0.463 | 0.974 | 0.774 | 0.773 | 0.733 | 0.699 | 0.868 | 0.839 | 0.731 | 0.758 | 0.704 | 0.816
5 | NCI-H322M | 0.85 | 0.814 | 0.923 | 0.628 | 0.768 | 0.63 | 0.743 | 0.654 | 0.678 | 0.846 | 0.74 | 0.764 | 0.688 | 0.785 | 0.555 | 0.567 | 0.416 | 0.424 | 0.525 | 0.654
6 | COR-L 105 | 0.526 | 0.491 | 0.499 |  | 0.481 | 0.668 | 0.699 | 0.444 | 0.7 | 1.07 | 0.892 | 0.987 | 0.919 | 0.898 | 0.358 | 0.389 | 0.289 | 0.304 | 0.256 | 0.526
7 | NCI-H1993 | 0.514 | 0.518 | 0.494 | 0.42 | 0.517 | 0.558 | 0.675 | 0.499 | 0.432 | 0.654 |  | 0.711 | 0.633 | 0.731 | 0.805 | 0.848 | 0.678 | 0.595 | 0.602 | 0.557
8 | NCI-H1437 | 0.294 | 0.281 | 0.402 | 0.26 | 0.318 | 0.521 | 0.508 | 0.518 | 0.612 | 0.959 | 0.869 | 1.04 | 0.85 | 0.755 | 0.775 | 0.866 | 0.529 | 0.414 | 0.114 | 0.547
